Results taken from PubChem BioAssay AID1259407 (Chemical Carcinogenesis Research Information System (CCRIS), 2018).
Calls of active or inactive are those of the source. No rule for the calls is given here.

System: CCRIS mutagenicity, Ames/micronucleus/aberration tests
Experiment: CCRIS mutagenicity studies
[1] = Test System: AMES SALMONELLA TYPHIMURIUM, Strain/Indicator: TA97, Metabolic Activation: HAMSTER, LIVER, S-9, AROCLOR 1254 (10%), Method: PREINCUBATION
[2] = Test System: AMES SALMONELLA TYPHIMURIUM, Strain/Indicator: TA97, Metabolic Activation: HAMSTER, LIVER, S-9, AROCLOR 1254 (30%), Method: PREINCUBATION
[3] = Test System: AMES SALMONELLA TYPHIMURIUM, Strain/Indicator: TA97, Metabolic Activation: NONE, Method: PREINCUBATION
[4] = Test System: AMES SALMONELLA TYPHIMURIUM, Strain/Indicator: TA97, Metabolic Activation: RAT, LIVER, S-9, AROCLOR 1254 (10%), Method: PREINCUBATION
[5] = Test System: AMES SALMONELLA TYPHIMURIUM, Strain/Indicator: TA97, Metabolic Activation: RAT, LIVER, S-9, AROCLOR 1254 (30%), Method: PREINCUBATION
[6] = Test System: AMES SALMONELLA TYPHIMURIUM, Strain/Indicator: TA98, Metabolic Activation: HAMSTER, LIVER, S-9, AROCLOR 1254 (10%), Method: PREINCUBATION
[7] = Test System: AMES SALMONELLA TYPHIMURIUM, Strain/Indicator: TA98, Metabolic Activation: HAMSTER, LIVER, S-9, AROCLOR 1254 (30%), Method: PREINCUBATION
[8] = Test System: AMES SALMONELLA TYPHIMURIUM, Strain/Indicator: TA98, Metabolic Activation: NONE, Method: PREINCUBATION
[9] = Test System: AMES SALMONELLA TYPHIMURIUM, Strain/Indicator: TA98, Metabolic Activation: RAT, LIVER, S-9, AROCLOR 1254 (10%), Method: PREINCUBATION
[10] = Test System: AMES SALMONELLA TYPHIMURIUM, Strain/Indicator: TA98, Metabolic Activation: RAT, LIVER, S-9, AROCLOR 1254 (30%), Method: PREINCUBATION
[11] = Test System: AMES SALMONELLA TYPHIMURIUM, Strain/Indicator: TA100, Metabolic Activation: HAMSTER, LIVER, S-9, AROCLOR 1254 (10%), Method: PREINCUBATION
[12] = Test System: AMES SALMONELLA TYPHIMURIUM, Strain/Indicator: TA100, Metabolic Activation: HAMSTER, LIVER, S-9, AROCLOR 1254 (30%), Method: PREINCUBATION
[13] = Test System: AMES SALMONELLA TYPHIMURIUM, Strain/Indicator: TA100, Metabolic Activation: NONE, Method: PREINCUBATION
[14] = Test System: AMES SALMONELLA TYPHIMURIUM, Strain/Indicator: TA100, Metabolic Activation: RAT, LIVER, S-9, AROCLOR 1254 (10%), Method: PREINCUBATION
[15] = Test System: AMES SALMONELLA TYPHIMURIUM, Strain/Indicator: TA100, Metabolic Activation: RAT, LIVER, S-9, AROCLOR 1254 (30%), Method: PREINCUBATION
[16] = Test System: AMES SALMONELLA TYPHIMURIUM, Strain/Indicator: TA1535, Metabolic Activation: HAMSTER, LIVER, S-9, AROCLOR 1254 (10%), Method: PREINCUBATION
[17] = Test System: AMES SALMONELLA TYPHIMURIUM, Strain/Indicator: TA1535, Metabolic Activation: HAMSTER, LIVER, S-9, AROCLOR 1254 (30%), Method: PREINCUBATION
[18] = Test System: AMES SALMONELLA TYPHIMURIUM, Strain/Indicator: TA1535, Metabolic Activation: NONE, Method: PREINCUBATION
[19] = Test System: AMES SALMONELLA TYPHIMURIUM, Strain/Indicator: TA1535, Metabolic Activation: RAT, LIVER, S-9, AROCLOR 1254 (10%), Method: PREINCUBATION
[20] = Test System: AMES SALMONELLA TYPHIMURIUM, Strain/Indicator: TA1535, Metabolic Activation: RAT, LIVER, S-9, AROCLOR 1254 (30%), Method: PREINCUBATION

| SMILES | mutagenic call [1] | mutagenic call [2] | mutagenic call [3] | mutagenic call [4] | mutagenic call [5] | mutagenic call [6] | mutagenic call [7] | mutagenic call [8] | mutagenic call [9] | mutagenic call [10] | mutagenic call [11] | mutagenic call [12] | mutagenic call [13] | mutagenic call [14] | mutagenic call [15] | mutagenic call [16] | mutagenic call [17] | mutagenic call [18] | mutagenic call [19] | mutagenic call [20] | also measured |
| --- | --- | --- | --- | --- | --- | --- | --- | --- | --- | --- | --- | --- | --- | --- | --- | --- | --- | --- | --- | --- | --- |
| c1ccc(Nc2ccccc2)cc1 | inactive; negative | inactive; negative | inactive; negative | inactive; negative | inactive; negative | inactive; negative | inactive; negative | inactive; negative | inactive; negative | inactive; negative | inactive; negative | inactive; negative | inactive; negative | inactive; negative | inactive; negative | inactive; negative | inactive; negative | inactive; negative | inactive; negative | inactive; negative | mutagenic call (End Point: In vitro chromosomal aberrations, Test System: Chinese hamster lung (CHL/IU) cells, Metabolic Activation: Rat, Liver, S9, Phenobarbital and 5,6-benzoflavone): active; positive (structural changes). toxicity at 0.14 mg/ml. |
| O=C1c2ccccc2C(=O)C1(O)O | inactive; negative | inactive; negative | inactive; negative | inactive; negative | inactive; negative | inactive; negative | inactive; negative | inactive; negative | inactive; negative | inactive; negative | inactive; negative | inactive; negative | inactive; negative | inactive; negative | inactive; negative | inactive; negative | inactive; negative | inactive; negative | inactive; negative | inactive; negative | mutagenic call (Test System: AMES SALMONELLA TYPHIMURIUM, Strain/Indicator: TA100, Metabolic Activation: RAT, LIVER, S-9, AROCLOR 1254 (5%), Method: PREINCUBATION): inactive; negative; mutagenic call (Test System: AMES SALMONELLA TYPHIMURIUM, Strain/Indicator: TA1537, Metabolic Activation: HAMSTER, LIVER, S-9, AROCLOR 1254 (10%), Method: PREINCUBATION): inactive; negative; mutagenic call (Test System: AMES SALMONELLA TYPHIMURIUM, Strain/Indicator: TA1537, Metabolic Activation: HAMSTER, LIVER, S-9, AROCLOR 1254 (30%), Method: PREINCUBATION): inactive; negative; mutagenic call (Test System: AMES SALMONELLA TYPHIMURIUM, Strain/Indicator: TA1537, Metabolic Activation: RAT, LIVER, S-9, AROCLOR 1254 (10%), Method: PREINCUBATION): inactive; negative; mutagenic call (Test System: AMES SALMONELLA TYPHIMURIUM, Strain/Indicator: TA1537, Metabolic Activation: RAT, LIVER, S-9, AROCLOR 1254 (30%), Method: PREINCUBATION): inactive; negative |
| Cc1c(N)cc(N)cc1N |  |  |  |  |  |  |  |  |  |  |  |  |  |  |  |  |  |  |  |  | mutagenic call (Test System: CHINESE HAMSTER CELLS, Strain/Indicator: CHO CELLS(HPRT)/6-THIOGUANINE, Metabolic Activation: NONE, Method: SUSPENSION/PLATE): active; positive; mutagenic call (Test System: CHINESE HAMSTER CELLS, Strain/Indicator: CHO CELLS(HPRT)/6-THIOGUANINE, Metabolic Activation: RAT LIVER S-9, AROCLOR 1254, Method: SUSPENSION/PLATE): inactive; negative |
| CC(C)(Cl)[N+](=O)[O-] |  |  |  |  |  |  | inactive; negative | inactive; negative |  | inactive; negative |  | inactive; negative | active; positive |  | inactive; negative |  | inactive; negative | inactive; negative |  | inactive; negative | mutagenic call (Test System: AMES SALMONELLA TYPHIMURIUM, Strain/Indicator: TA1538, Metabolic Activation: HAMSTER, LIVER, S-9, AROCLOR 1254 (30%), Method: PREINCUBATION): inactive; negative; mutagenic call (Test System: AMES SALMONELLA TYPHIMURIUM, Strain/Indicator: TA1538, Metabolic Activation: NONE, Method: PREINCUBATION): inactive; negative; mutagenic call (Test System: AMES SALMONELLA TYPHIMURIUM, Strain/Indicator: TA1538, Metabolic Activation: RAT, LIVER, S-9, AROCLOR 1254 (30%), Method: PREINCUBATION): inactive; negative |
| C[n+]1cccc2c1C=C[C@H]1O[C@@H]21 |  |  |  |  |  |  |  |  |  |  |  |  |  |  |  |  |  |  |  |  | mutagenic call (Test System: AMES SALMONELLA TYPHIMURIUM, Strain/Indicator: TA100, Metabolic Activation: NONE, Method: STANDARD PLATE): inactive; negative; mutagenic call (Test System: AMES SALMONELLA TYPHIMURIUM, Strain/Indicator: TA100, Metabolic Activation: RAT, LIVER, S-9, AROCLOR 1254 (20%), Method: STANDARD PLATE): active; positive |
